Assay results as given in ChEMBL document CHEMBL3044582, “Nontraditional approaches to the synthesis of some biologically active substituted p-benzoquinones” (2008).
The source made the active and inactive calls. The rule behind the calls is not given here.

Assays:
Format in all cases: functional
[1] = system: Pseudomonas syringae; assay: Antibacterial activity against Pseudomonas syringae at 50 ug/ml after 24 hr by agar cup-plate method; conditions: read-out: DIZ
[2] = system: Aspergillus niger; assay: Antifungal activity against Aspergillus niger at 50 ug/ml after 48 hr by paper disk diffusion method; conditions: read-out: IZ
[3] = system: Paracoccus denitrificans; assay: Antibacterial activity against Paracoccus denitrificans at 50 ug/ml after 24 hr by agar cup-plate method; conditions: read-out: DIZ
[4] = system: Aspergillus flavus; assay: Antifungal activity against Aspergillus flavus at 50 ug/ml after 48 hr by paper disk diffusion method; conditions: read-out: IZ
[5] = system: Rhizopus arrhizus; assay: Antifungal activity against Rhizopus oryzae at 50 ug/ml after 48 hr by paper disk diffusion method; conditions: for zone of inhibition at 50 µg/mL: read-out: IZ
[6] = system: Rhizopus arrhizus; assay: Antifungal activity against Rhizopus oryzae at 100 ug/ml after 48 hr by paper disk diffusion method; conditions: for zone of inhibition at 100 µg/mL: read-out: IZ
[7] = system: Bacillus subtilis; assay: Antibacterial activity against Bacillus subtilis at 50 ug/ml after 24 hr by agar cup-plate method; conditions: read-out: DIZ
[8] = system: Aspergillus niger; assay: Antifungal activity against Aspergillus niger at 100 ug/ml after 48 hr by paper disk diffusion method; conditions: read-out: IZ
[9] = system: Aspergillus flavus; assay: Antifungal activity against Aspergillus flavus at 100 ug/ml after 48 hr by paper disk diffusion method; conditions: read-out: IZ
[10] = system: Klebsiella aerogenes; assay: Antibacterial activity against Enterobacter aerogenesat 50 ug/ml after 24 hr by agar cup-plate method
[11] = system: Klebsiella aerogenes; assay: Antibacterial activity against Enterobacter aerogenes at 4 ug/ml after 24 hr by agar cup-plate method; conditions: read-out: DIZ
[12] = system: Bacillus subtilis; assay: Antibacterial activity against Bacillus subtilis at 4 ug/ml after 24 hr by agar cup-plate method; conditions: read-out: DIZ
[13] = system: Paracoccus denitrificans; assay: Antibacterial activity against Paracoccus denitrificans at 4 ug/ml after 24 hr by agar cup-plate method; conditions: read-out: DIZ
[14] = system: Pseudomonas syringae; assay: Antibacterial activity against Pseudomonas syringae at 4 ug/ml after 24 hr by agar cup-plate method; conditions: read-out: DIZ

Compound	zone of inhibition at 50 µg/mL [1] [mm]	zone of inhibition at 50 µg/mL [2] [mm]	zone of inhibition at 50 µg/mL [3] [mm]	zone of inhibition at 50 µg/mL [4] [mm]	inhibition zone (IZ) [5]	zone of inhibition at 100 µg/mL [6] [mm]	zone of inhibition at 50 µg/mL [7] [mm]	zone of inhibition at 100 µg/mL [8] [mm]	zone of inhibition at 100 µg/mL [9] [mm]	diameter of the inhibition zone (DIZ) [10]	zone of inhibition at 50 µg/mL [5] [mm]	zone of inhibition at 4 µg/mL [11] [mm]	zone of inhibition at 4 µg/mL [12] [mm]	zone of inhibition at 4 µg/mL [13] [mm]	zone of inhibition at 4 µg/mL [14] [mm]	inhibition zone (IZ) [6]
O=C1C(Cl)=C(Nc2ccccc2)C(=O)C(Cl)=C1Nc1ccccc1	10	3	10	3	inactive	3	3	10	3	inactive						
O=C1C(Cl)=C(Nc2ccccc2Cl)C(=O)C(Cl)=C1Nc1ccccc1Cl	10	10	13	10		13	13	13	13	10 mm	10					
O=C1C(Cl)=C(Nc2ccc(Cl)cc2)C(=O)C(Cl)=C1Nc1ccc(Cl)cc1	10	10	10	10		10	10	10	13	13 mm	3					
COC1=CC(=O)C[C@@H](C)[C@]12Oc1c(Cl)c(OC)cc(OC)c1C2=O [GRISEOFULVIN]		> 21		> 21		> 21		> 21	> 21		> 21					
COc1ccccc1NC1=C(Cl)C(=O)C(Nc2ccccc2OC)=C(Cl)C1=O	3	10	13	3		10	3	13	10	10 mm	3					
O=C1C(Cl)=C(Nc2ccccc2F)C(=O)C(Cl)=C1Nc1ccccc1F	13	13	> 21	10		13	> 21	> 21	13	13 mm	10					
CCn1cc(C(=O)O)c(=O)c2cc(F)c(N3CCNCC3)cc21 [NORFLOXACIN]												> 21	> 21	13	> 21	
O=C1C(Cl)=C(Nc2ccc(F)cc2)C(=O)C(Cl)=C1Nc1ccc(F)cc1	13	13	13	13		13	> 21	> 21	13	10 mm	10					
O=C1C(Cl)=C(Nc2ccc(Br)cc2)C(=O)C(Cl)=C1Nc1ccc(Br)cc1	10	10	13	10		13	13	> 21	13	10 mm	3					
Cc1ccc(NC2=C(Cl)C(=O)C(Nc3ccc(C)cc3)=C(Cl)C2=O)cc1	3	3	10	3	inactive		3	10	10	inactive						inactive
Cc1ccccc1NC1=C(Cl)C(=O)C(Nc2ccccc2C)=C(Cl)C1=O	3	3	3	3	inactive		3	3	3	3 mm						inactive
COc1ccc(NC2=C(Cl)C(=O)C(Nc3ccc(OC)cc3)=C(Cl)C2=O)cc1	10	3	13	10	inactive	3	10	10	13	3 mm						
